Tested on: serum LH, FSH, oestradiol and progesterone
Experiment: Intranasal kisspeptin-54, reproductive hormone profiles in healthy women
Format: in vivo, human
Conditions: N = 12
Procedure: This was a randomised, double-blinded, crossover, placebo-controlled clinical study (Fig. 1, Fig. 2, Fig. 3a). Participants were admitted to the Clinical Research Unit (Imperial College Healthcare NHS Trust) and completed five (in healthy men) or two (in healthy women and patients with HA) study visits. […] Study visits in healthy women were conducted in the follicular phase of the menstrual cycle (i.e., days 2–10 inclusive) to control for changes in reproductive hormones over the course of the cycle and were conducted across two different menstrual cycles to allow washout.
All studies commenced at 08:00 to control for circadian hormonal changes. Participants were instructed to abstain from alcohol, caffeine, and sexual activities from 22:00 preceding each study visit. On arrival, an intravenous cannula was inserted into one antecubital fossa, and blood was sampled at timepoints −30, −15, and 0 min, before intranasal administration of kisspeptin-54 or 0.9% saline (placebo). Following participant education (described below), healthy men self-administered the following 5 interventions under supervision in random order via the intranasal route: 3.2, 6.4, 12.8, and 25.6 nmol/kg of kisspeptin-54, or placebo. Healthy women and patients with HA attended for the same protocol comparing 12.8 nmol/kg of kisspeptin-54 and placebo in random order. After administration of kisspeptin-54 or placebo at timepoint 0 min, serum levels of LH, FSH, and testosterone (in men), or oestradiol and progesterone (in women) were measured every 15 min for 4 h. Heart rate, blood pressure, and the presence of adverse symptoms were recorded every 15 min.
Kisspeptin-54 or placebo was self-administered using nasal spray devices that delivered a single volume of 100 μL per actuation (SP270+ pump, 3959 actuator, 5 mL SGD U-Save glass bottles provided by Nemera, La Verpillière, France). The kisspeptin-54 nasal spray solution formulations were prepared by reconstituting kisspeptin-54 powder stored in sterile vials on the morning of each study visit to produce a solution containing the target dose according to body weight in 400 μL.
Participants were familiarised with the procedure of intranasal application and were provided with written administration instructions ahead of each study visit, as described in.[38] In addition, participants received a 5-min training session using a dummy nasal spray device before starting the study to ensure good technique, which all participants easily understood. Under instruction and supervision from the clinical team, participants primed the nasal sprays then self-administered a total of four sprays of kisspeptin-54 or placebo per visit (i.e., 4 × 100 μL), alternating between nostrils and leaving 60 s between sprays, to allow satisfactory dissipation and avoid solution running out of the nostrils. Nasal sprays containing kisspeptin or placebo were identical in appearance, volume, and administration technique.
Blood samples were collected to measure serum reproductive hormone levels at the timepoints depicted in Fig. 1, Fig. 2, Fig. 3a. Serum samples were stored at −20 °C until analysis. Serum LH, FSH, testosterone (in men), and oestradiol and progesterone (in women) were measured using automated chemiluminescent immunoassays (Abbott Diagnostics, Maidenhead, UK: LH catalogue # 2P40-25, FSH catalogue # 7K75-25, testosterone catalogue # 07K7320, oestradiol catalogue # 7K72-25, progesterone catalogue # 7K77-25). Reference ranges: LH in international units per litre (IU/L), 2–12 (men), 2–10 (follicular), 20–60 (mid-cycle), 4–14 (luteal); FSH in IU/L, 1.7–8 (men), 1.5–8.0 (follicular and luteal), 10–50 (mid-cycle); in men: testosterone in nanomoles per litre (nmol/L), 10–30; and in women: oestradiol in picomoles per litre (pmol/L), <300 (early follicular), 400–1500 (mid-cycle), 200–1000 (luteal) and progesterone in nmol/L, <5.0 (follicular), 3.5–67 (luteal). […]

[1] = follicular phase, intranasal 12.8 nmol/kg, 4 h sampling, mean ± SEM
[2] = follicular phase, intranasal 12.8 nmol/kg, mean ± SEM
[3] = intranasal 12.8 nmol/kg vs placebo, paired t-test
[4] = intranasal 12.8 nmol/kg, two-way ANOVA, 4 h time profile

Kisspeptin-54 was tested, and the “AUC of the change in serum FSH” value [1] was -36.1 ± 23.4 h·IU/L, the “AUC of the change in serum LH” value [1] was 96.0 ± 45.8 h·IU/L and the “Maximum increase from baseline in serum FSH” value [2] was 0.3 ± 0.1 IU/L. The “Maximum increase from baseline in serum LH” value [2] was 1.4 ± 0.3 IU/L, the “FSH AUC, mean difference vs placebo” value [3] was 76.4 h·IU/L and the “FSH maximum increase, mean difference vs placebo” value [3] was 0.4 IU/L. For the same substance, the “LH AUC, mean difference vs placebo” value [3] was 179.8 h·IU/L, the “LH maximum increase, mean difference vs placebo” value [3] was 1.0 IU/L and the “Effect on circulating oestradiol and progesterone levels” value (intranasal 12.8 nmol/kg, acute 4-h time-course) was “no significant effects”. For the same substance, the “Serum FSH over time, mean difference vs placebo” value [4] was 0.3 IU/L and the “Serum LH over time, mean difference vs placebo” value [4] was 0.7 IU/L.
